{
  "source": "patent US7250269B2",
  "about": "“Composition for assaying glycoprotein” (Asahi Kasei Pharma Corporation, priority 2001, dated 2007)",
  "assay_type_in_all_cases": "biochemical",
  "key": {"[1]": {"molecular_target": "T1, HSA substrate solution; Albumin Human (Homo sapiens, UniProt P02768)", "T1 construct": "purchased Sigma-Aldrich Co", "T1 sequence (P02768 25-609)": "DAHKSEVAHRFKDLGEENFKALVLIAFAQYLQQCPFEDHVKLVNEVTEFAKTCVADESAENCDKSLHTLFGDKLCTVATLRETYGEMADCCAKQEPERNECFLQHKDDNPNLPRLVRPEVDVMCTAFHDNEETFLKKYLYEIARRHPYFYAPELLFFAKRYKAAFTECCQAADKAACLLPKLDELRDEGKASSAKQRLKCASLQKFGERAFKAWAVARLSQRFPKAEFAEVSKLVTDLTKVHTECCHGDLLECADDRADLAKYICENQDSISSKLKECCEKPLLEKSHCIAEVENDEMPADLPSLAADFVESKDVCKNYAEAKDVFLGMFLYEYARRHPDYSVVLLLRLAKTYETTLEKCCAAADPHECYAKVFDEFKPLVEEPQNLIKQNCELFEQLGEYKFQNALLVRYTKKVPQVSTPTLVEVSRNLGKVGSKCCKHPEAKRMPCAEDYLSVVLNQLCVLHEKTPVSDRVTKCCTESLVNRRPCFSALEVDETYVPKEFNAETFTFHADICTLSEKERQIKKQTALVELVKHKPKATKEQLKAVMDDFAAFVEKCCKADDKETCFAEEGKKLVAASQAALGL", "experiment": "Activity of various proteases on HSA substrate solution (released glycated amino acids/peptides assayed with R-FOD)", "conditions": "pH 8.0; 37° C. for 30 minutes", "description": "(§1) • 1. […] GA % was assayed using a glycated albumin analyzer (GAA-2000, manufactured by ARKRAY, Inc.). • 2. G-II and III substrate solutions, FRA value=48 μmol/L [Globulins Human Cohn Fraction II and III; 16.9 mg/ml (manufactured by Sigma-Aldrich Co.)] • 3. G-IV substrate solution, FRA value=26 μmol/L [Globulins Human Cohn Fraction IV; 6 mg/ml (manufactured by Sigma-Aldrich Co.)] • 4. G-I substrate solution, FRA value=77 μmol/L [Glovenin I: immunoglobulin preparation (manufactured by Takeda Chemical Industries, Ltd.)] • 5. Hb substrate solution: Hemoglobin Human; 55 mg/ml, glycated hemoglobin rate: HbA1c=4.5% [manufactured by Sigma-Aldrich Co., the HbA1c value was determined using a glycated hemoglobin analyzer (Hi-Auto A1C HA-8150, manufactured by ARKRAY, Inc.)]. […]\n(§2) 300 μl of the above reaction solution for assaying glycated amino acids was added to a cell and incubated for three minutes at 37° C. […] Absorbances (A0 blank and A1 blank) were measured. The reaction of protease with glycated proteins is indicated by the following absorbance change. ΔA=(A1−A0)−(A1 blank−A0 blank)"}, "[2]": {"molecular_target": "T2, Hb substrate solution: Hemoglobin Human (Homo sapiens, UniProt P68871+P69905)", "T2 construct": "purchased Sigma-Aldrich Co", "T2 sequence (P69905 2-142 limits assumed)": "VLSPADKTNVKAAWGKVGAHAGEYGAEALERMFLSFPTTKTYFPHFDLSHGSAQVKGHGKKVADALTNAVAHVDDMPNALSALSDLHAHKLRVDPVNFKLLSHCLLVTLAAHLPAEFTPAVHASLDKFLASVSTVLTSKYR", "T2 sequence (P68871 2-147 limits assumed)": "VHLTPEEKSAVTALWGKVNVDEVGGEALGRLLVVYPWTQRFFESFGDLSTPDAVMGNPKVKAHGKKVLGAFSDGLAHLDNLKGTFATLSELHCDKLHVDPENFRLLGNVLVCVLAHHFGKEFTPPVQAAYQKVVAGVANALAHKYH", "experiment": "Activity of various proteases on Hb substrate solution (R-FOD assay)", "conditions": "pH 8.0; 37° C. for 60 minutes", "description": "as §1, §2"}, "[3]": {"test_system": "G-I substrate solution (Glovenin I: immunoglobulin preparation)", "experiment": "Activity of various proteases on G-I substrate solution (R-FOD assay)", "conditions": "pH 8.0, 37° C. for 30 minutes", "description": "as §1, §2"}, "[4]": {"molecular_target": "Fusarium oxysporum IFO-9972 fructosyl amino acid oxidase (FOD), mutant with 372nd lysine of SEQ ID NO: 1 replaced with alanine (Fusarium oxysporum, UniProt X0D315, K373A)", "experiment": "Substrate specificity of mutant FOD, Table 6 (372nd lysine replaced with alanine)", "conditions": "for Kcat: substrate glycated amino acid", "description": "(§3) <<Method for Measuring Activity of Enzyme Reacting with Glycated Amino Acid>>\n(§4) <Composition of Reaction Solution>\n(§5) The glycated amino acid substrate specificity of FOD-mutated recombinant contained in the cell extract prepared in Example 16 was measured using the above-mentioned FOD enzyme activity measuring method. As a result, two mutants of which the reactivity with glycated valine is less than 1/1,000 the reactivity with glycated lysine were identified among candidate strains. These were regarded as the target mutants.\n(§6) To observe the effect of replacement with other amino acids at the mutated amino acid site identified in Example 19, the site-directed mutagenesis according to the method of Kunkel et al. was carried out. Synthesis of an oligonucleotide having the base sequence of 1-27 in the sequence table Sequence ID No. 7 was consigned to an outside source (BEX Co., Ltd.). The oligonucleotide was subjected to the site-directed mutagenesis using the Mutan-K kit (manufactured by Takara Shuzo Co., Ltd.) according to the manual attached to the kit. The mutant gene obtained was incorporated again into the expression plasmid pTV119N, introduced into Escherichia coli host, and cultured at 30° C. for 16 hours in a 3.7% BHI liquid medium containing 50 μg/ml of ampicillin and 1 mM of IPTG to produce mutant FOD protein."}, "[5]": {"molecular_target": "Fusarium oxysporum IFO-9972 fructosyl amino acid oxidase (FOD), mutant FOD-V, 372nd lysine of SEQ ID NO: 1 replaced with valine, SEQ ID NO: 4 (Fusarium oxysporum, UniProt X0D315, K373V)", "experiment": "Substrate specificity of mutant FOD-V, Table 6 (372nd lysine replaced with valine)", "conditions": "for Kcat: substrate glycated amino acid", "description": "as §3, §4, §5, §6\n(§7) The mutant obtained by replacing the lysine with tryptophan was named FOD-W, the expression plasmid producing the FOD-W was named pcmFOD3, the mutant obtained by replacing the lysine with methionine was named FOD-M, the expression plasmid producing the FOD-M was named pcmFOD4, the mutant obtained by replacing the lysine with valine was named FOD-V, and the expression plasmid producing the FOD-V was named pcmFOD5."}, "[6]": {"molecular_target": "Fusarium oxysporum IFO-9972 fructosyl amino acid oxidase (FOD), mutant FOD-W, 372nd lysine of SEQ ID NO: 1 replaced with tryptophan, SEQ ID NO: 2 (Fusarium oxysporum, UniProt X0D315, K373W)", "experiment": "Substrate specificity and Km of mutant FOD-W (372nd lysine replaced with tryptophan)", "conditions": "substrate glycated amino acid, \"below limit\" = below the detection limit", "description": "as §3, §4, §5\nas §6, with “protein. […]” for “protein.”"}, "[7]": {"molecular_target": "Fusarium oxysporum IFO-9972 fructosyl amino acid oxidase (FOD), mutant with 372nd lysine of SEQ ID NO: 1 replaced with threonine (Fusarium oxysporum, UniProt X0D315, K373T)", "experiment": "Substrate specificity of mutant FOD, Table 6 (372nd lysine replaced with threonine)", "conditions": "for Kcat: substrate glycated amino acid", "description": "as §3, §4, §5, §6"}, "[8]": {"molecular_target": "Fusarium oxysporum IFO-9972 fructosyl amino acid oxidase (FOD), mutant with 372nd lysine of SEQ ID NO: 1 replaced with arginine (Fusarium oxysporum, UniProt X0D315, K373R)", "experiment": "Substrate specificity of mutant FOD, Table 6 (372nd lysine replaced with arginine)", "conditions": "for Kcat: substrate glycated amino acid", "description": "as §3, §4, §5\nThe base sequences of the mutant FOD genes obtained in Example 18 were determined according to the dideoxy method.\nas §6"}, "[9]": {"molecular_target": "Fusarium oxysporum IFO-9972 fructosyl amino acid oxidase (FOD), mutant with 372nd lysine of SEQ ID NO: 1 replaced with serine (Fusarium oxysporum, UniProt X0D315, K373S)", "experiment": "Substrate specificity of mutant FOD, Table 6 (372nd lysine replaced with serine)", "conditions": "for Kcat: substrate glycated amino acid", "description": "as §3, §4, §5, §6"}, "[10]": {"molecular_target": "Fusarium oxysporum IFO-9972 fructosyl amino acid oxidase (FOD), wild type (372nd lysine), SEQ ID NO: 1 (Fusarium oxysporum, UniProt X0D315)", "experiment": "Substrate specificity of FOD, Table 6 (372nd amino acid Lysine, wild type)", "conditions": "for Kcat: substrate glycated amino acid", "description": "as §3, §4, §5, §6"}, "[11]": {"molecular_target": "Fusarium oxysporum IFO-9972 fructosyl amino acid oxidase (FOD), mutant with 372nd lysine of SEQ ID NO: 1 replaced with cysteine (Fusarium oxysporum, UniProt X0D315, K373C)", "experiment": "Substrate specificity of mutant FOD, Table 6 (372nd lysine replaced with cysteine)", "conditions": "for Kcat: substrate glycated amino acid", "description": "as §3, §4, §5, §6"}, "[12]": {"molecular_target": "Fusarium oxysporum IFO-9972 fructosyl amino acid oxidase (FOD), mutant FOD-M, 372nd lysine of SEQ ID NO: 1 replaced with methionine, SEQ ID NO: 3 (Fusarium oxysporum, UniProt X0D315, K373M)", "experiment": "Substrate specificity of mutant FOD-M, Table 6 (372nd lysine replaced with methionine)", "conditions": "for Kcat: substrate glycated amino acid", "description": "as §3, §4, §5, §6, §7"}},
  "data": [
    {"compound": "Chymotrypsin", "values": [
      {"measurement": "ΔA HSA", "setting": "[1]", "result": 25, "unit": "mAbs"},
      {"measurement": "ΔA Hb", "setting": "[2]", "result": 7, "unit": "mAbs"},
      {"measurement": "ΔA Gl", "setting": "[3]", "result": 103, "unit": "mAbs"}
    ]},
    {"compound": "O=C(N[C@@H](CCCCNCC1(O)OC[C@@H](O)[C@@H](O)[C@@H]1O)C(=O)O)OCc1ccccc1", "note": "(stereo partly drawn) [glycated lysine, α-carbobenzoxy-ε-D-1-deoxy-fructosyl lysine]", "values": [
      {"measurement": "Kcat reactivity ratio (a)/(b), glycated lysine/glycated valine", "setting": "[4]", "result": 1480},
      {"measurement": "Kcat", "setting": "[4]", "result": 1790},
      {"measurement": "Kcat reactivity ratio (a)/(b), glycated lysine/glycated valine", "setting": "[5]", "result": 1420},
      {"measurement": "Kcat", "setting": "[5]", "result": 1470},
      {"measurement": "Kcat", "setting": "[6]", "result": 248},
      {"measurement": "Kcat reactivity ratio (a)/(b), glycated lysine/glycated valine", "setting": "[7]", "result": 2010},
      {"measurement": "Kcat", "setting": "[7]", "result": 952},
      {"measurement": "Kcat reactivity ratio (a)/(b), glycated lysine/glycated valine", "setting": "[8]", "result": 788},
      {"measurement": "Kcat", "setting": "[8]", "result": 351},
      {"measurement": "Kcat reactivity ratio (a)/(b), glycated lysine/glycated valine", "setting": "[9]", "result": 747},
      {"measurement": "Kcat", "setting": "[9]", "result": 1250},
      {"measurement": "Kcat reactivity ratio (a)/(b), glycated lysine/glycated valine", "setting": "[10]", "result": 27.1},
      {"measurement": "Kcat", "setting": "[10]", "result": 14900},
      {"measurement": "Kcat reactivity ratio (a)/(b), glycated lysine/glycated valine", "setting": "[11]", "result": 1560},
      {"measurement": "Kcat", "setting": "[11]", "result": 569},
      {"measurement": "Kcat reactivity ratio (a)/(b), glycated lysine/glycated valine", "setting": "[12]", "result": 745},
      {"measurement": "Kcat", "setting": "[12]", "result": 853}
    ]},
    {"compound": "CC(C)[C@H](NCC1(O)OC[C@@H](O)[C@@H](O)[C@@H]1O)C(=O)O", "note": "(some centres unmarked) [glycated valine, 1-deoxy-fructosyl valine]", "values": [
      {"measurement": "Kcat", "setting": "[4]", "result": 1.21},
      {"measurement": "Kcat", "setting": "[5]", "result": 1.04},
      {"measurement": "Kcat", "setting": "[6]", "result": "below limit"},
      {"measurement": "Kcat", "setting": "[7]", "result": 0.47},
      {"measurement": "Kcat", "setting": "[8]", "result": 0.45},
      {"measurement": "Kcat", "setting": "[9]", "result": 1.68},
      {"measurement": "Kcat", "setting": "[10]", "result": 549},
      {"measurement": "Kcat", "setting": "[11]", "result": 0.37},
      {"measurement": "Kcat", "setting": "[12]", "result": 1.14}
    ]},
    {"compound": "Pancreatin", "values": [
      {"measurement": "ΔA HSA", "setting": "[1]", "result": 52, "unit": "mAbs"},
      {"measurement": "ΔA Hb", "setting": "[2]", "result": 17, "unit": "mAbs"},
      {"measurement": "ΔA Gl", "setting": "[3]", "result": 100, "unit": "mAbs"}
    ]}
  ]
}
